Assay [1] concerns the target T1, cystine/glutamate transporter (Homo sapiens, UniProt Q9UPY5).
T1 construct: endogenous in cells; host or cells: SKOV3 cells treated with 100 uM DEM (the paragraph also says 'DEM treated EL4 cells')
T1 sequence (Q9UPY5 1-501): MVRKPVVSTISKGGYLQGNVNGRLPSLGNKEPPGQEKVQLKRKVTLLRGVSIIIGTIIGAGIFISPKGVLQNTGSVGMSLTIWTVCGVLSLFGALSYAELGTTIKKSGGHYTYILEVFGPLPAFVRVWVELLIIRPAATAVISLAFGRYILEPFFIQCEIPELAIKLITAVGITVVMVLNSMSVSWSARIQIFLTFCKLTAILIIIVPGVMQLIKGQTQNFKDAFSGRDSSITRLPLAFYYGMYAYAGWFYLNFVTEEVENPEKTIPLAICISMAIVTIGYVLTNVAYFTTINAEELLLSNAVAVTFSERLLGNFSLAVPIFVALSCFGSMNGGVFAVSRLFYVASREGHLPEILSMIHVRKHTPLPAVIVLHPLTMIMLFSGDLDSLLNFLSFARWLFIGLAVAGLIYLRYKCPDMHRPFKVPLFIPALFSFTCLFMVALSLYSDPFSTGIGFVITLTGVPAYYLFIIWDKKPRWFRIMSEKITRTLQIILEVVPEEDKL
T1 sequence (P08195 2-529 partner): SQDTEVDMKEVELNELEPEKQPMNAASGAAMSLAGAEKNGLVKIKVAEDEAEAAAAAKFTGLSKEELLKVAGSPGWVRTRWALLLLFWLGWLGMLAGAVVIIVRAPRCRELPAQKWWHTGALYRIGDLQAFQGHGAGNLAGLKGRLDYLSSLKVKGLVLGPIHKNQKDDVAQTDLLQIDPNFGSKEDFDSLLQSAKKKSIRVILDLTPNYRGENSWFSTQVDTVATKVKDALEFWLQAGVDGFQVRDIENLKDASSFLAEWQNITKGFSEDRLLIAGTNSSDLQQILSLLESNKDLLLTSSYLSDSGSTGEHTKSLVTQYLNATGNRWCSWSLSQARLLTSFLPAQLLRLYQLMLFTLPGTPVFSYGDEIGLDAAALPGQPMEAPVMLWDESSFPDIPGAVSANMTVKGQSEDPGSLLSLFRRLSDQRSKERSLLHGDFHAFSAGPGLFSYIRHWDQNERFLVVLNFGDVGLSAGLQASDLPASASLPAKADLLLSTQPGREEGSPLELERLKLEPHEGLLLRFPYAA
The experiment in a line: inhibition of 3H-L-Glu uptake in DEM treated cells. The class given is cell-based. The following applies: for remaining activity at 1000 µM: 0.5 h, 1 mM agent, 30 minutes uptake at room temperature, cells pretreated with 100 μM DEM overnight, triplicate, lower = inhibition of the transporter, read-out: % of contro1 3H-Glu uptake. How it is done: Following are non-limiting examples used to illustrate various embodiments of the imaging agents and methods of use. As such Table 1 provides examples of the non-labelled analog of the final product. Also provided are measurements of inhibition response of ^3H-L-GLU (control) uptake in DEM treated EL4 cells. As such 96 well plate were seeded with 100,000 SKOV3 cells/well in complete growth media (McCoy's+10% Fetal Bovine Serum(FBS)) and incubated overnight at 37° C. The media was changed to 100 μM DEM and again incubated overnight at 37° C. Wash 1× with Hank's Balanced Salt Solution (HBSS) Room Temperature and assayed 50 μl of each agent (Table 1) in triplicate by incubating for 30 minutes (uptake) at room temperature. It was then washed twice with HBSS and 200 μl MicroScint20 added for counting. The protocol used 200 uCi 3H-Glu per well. The mix and agent and ^3H-Glu provided a final concentration of 200 uCi and 1 mM agent. […] As such lower response is indicative of inhibition of the transporter. As such numbers below approximately 30% is equivalent to 70% inhibition and are considered good candidates for pharmaceutical agents.

Assay [2] deals with T2, oxidative stress transporter (Homo sapiens, UniProt Q9UPY5).
T2 sequence (Q9UPY5 1-501): T1 sequence (Q9UPY5 1-501)
T2 sequence (P08195 1-529 partner): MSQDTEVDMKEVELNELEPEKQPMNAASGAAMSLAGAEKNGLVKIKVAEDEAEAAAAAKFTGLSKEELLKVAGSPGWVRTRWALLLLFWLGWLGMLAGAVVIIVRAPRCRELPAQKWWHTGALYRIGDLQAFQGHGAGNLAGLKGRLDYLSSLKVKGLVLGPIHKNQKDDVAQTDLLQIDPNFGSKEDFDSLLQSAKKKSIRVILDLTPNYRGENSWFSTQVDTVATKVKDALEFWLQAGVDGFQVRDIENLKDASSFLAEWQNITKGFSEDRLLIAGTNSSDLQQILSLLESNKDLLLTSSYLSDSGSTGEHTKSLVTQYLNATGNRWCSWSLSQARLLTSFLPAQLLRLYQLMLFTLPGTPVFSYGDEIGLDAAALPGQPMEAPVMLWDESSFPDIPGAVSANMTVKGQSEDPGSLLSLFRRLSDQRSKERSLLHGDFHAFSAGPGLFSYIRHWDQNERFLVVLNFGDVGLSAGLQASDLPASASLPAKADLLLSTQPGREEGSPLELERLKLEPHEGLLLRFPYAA
The following applies: as reported in U.S. patent application Ser. No. 13/234,210; cited from earlier work.

Turning to `N[C@@H](CCC(=O)N1C[C@H](c2ccccc2)C[C@H]1C(=O)O)C(=O)O` [1h], the remaining activity at 1000 µM in assay [1] turned out to be 52.3%.

As for `N[C@@H](CCCCCC(=O)O)C(=O)O` [aminosuberic acid], the “uptake via the oxidative stress transporter” value in assay [2] is on record as “good uptake”.

For `N[C@@H](CCC(=O)N1CCC[C@H]1C(=O)O)C(=O)O` [1a], in assay [1], the remaining activity at 1000 µM is 46.3%.

As for `N[C@@H](CCC(=O)N1C[C@H](Oc2ccccc2)C[C@H]1C(=O)O)C(=O)O` [1l], the remaining activity at 1000 µM in assay [1] is 36.6%.

On to `N[C@@H](CCC(=O)N1C[C@@H](c2ccccc2)C[C@H]1C(=O)O)C(=O)O` [1i], for which the remaining activity at 1000 µM in assay [1] stood at 46.2%.

With `N[C@@H](CCC(=O)N1CCC[C@@H]1C(=O)O)C(=O)O` [1b], the remaining activity at 1000 µM in assay [1] is 84%.

Consider `N[C@@H](CCC(=O)N1C[C@H](OCc2ccccc2)C[C@H]1C(=O)O)C(=O)O` [1m], for which the remaining activity at 1000 µM in assay [1] was determined as 14.9%. In assay [1] (comparison of the 2S,4R-hydroxyproline scaffold with the other stereoisomers), the “uptake compared to structures 1n, 1o, or 1p (hydroxyproline stereoisomers)” value is given as “improved uptake”.

As to `CCOc1cccc(CO[C@@H]2C[C@@H](C(=O)O)N(C(=O)CC[C@H](N)C(=O)O)C2)c1` [1q], the remaining activity at 1000 µM in assay [1] amounted to 14.5%.

`N[C@@H](CCC(=O)N1C[C@H](OCc2ccc(COCCF)cc2)C[C@H]1C(=O)O)C(=O)O` [1r]: the remaining activity at 1000 µM in assay [1] was determined as 10.1%.

Turning to `N[C@@H](CCC(=O)N1C[C@@H](OCc2ccccc2)CC1C(=O)O)C(=O)O` (some centres unmarked) [1o], in assay [1], the remaining activity at 1000 µM is 43.2%.

Take `N[C@@H](CCC(=O)N1C[C@@H](OCc2ccccc2)C[C@H]1C(=O)O)C(=O)O` [1n]: the remaining activity at 1000 µM in assay [1] came out at 26.2%.

As for `N[C@@H](CCC(=O)N1C[C@@H](O)C[C@H]1C(=O)O)C(=O)O` [1f], the remaining activity at 1000 µM in assay [1] was 30.8%.

Turning to `N[C@@H](CCC(=O)N1C[C@H](O)C[C@@H]1C(=O)O)C(=O)O` [1g], the remaining activity at 1000 µM in assay [1] was 94.7%.

`N[C@@H](CCC(=O)N1C[C@H](Cc2ccccc2)C[C@H]1C(=O)O)C(=O)O` [1k]: in assay [1], the remaining activity at 1000 µM turned out to be 30.9%.

On to `N[C@@H](CCC(=O)N1C[C@@H](O)C[C@@H]1C(=O)O)C(=O)O` [1e], for which the remaining activity at 1000 µM in assay [1] was found to be 74%.

Turning to `N[C@@H](CCC(=O)N1C[C@H](OCc2ccccc2)CC1C(=O)O)C(=O)O` (some centres unmarked) [1p], the remaining activity at 1000 µM in assay [1] was determined as 50%.

As for `N[C@@H](CCC(=O)N1C[C@@H](Oc2ccccc2)C[C@H]1C(=O)O)C(=O)O` [1j], the remaining activity at 1000 µM in assay [1] is 33%.

Regarding `N[C@@H](CCC(=O)N1C[C@H](O)C[C@H]1C(=O)O)C(=O)O` [1c], the remaining activity at 1000 µM in assay [1] stood at 73.6%.

As for `N[C@@H](CCC(=O)N1C[C@H](F)C[C@H]1C(=O)O)C(=O)O` [1d], the remaining activity at 1000 µM in assay [1] amounted to 51.8%.

(Values after US9468693B2, “Labeled molecular imaging agents and methods of use” (GENERAL ELECTRIC COMPANY, priority 2014, dated 2016).)
